The text below walks through data of ChEMBL document CHEMBL1158310, “Cytotoxic Degradation Product of Physostigmine” (1996).

Molecules are shown by their SMILES. Converted amounts (≈) assume the structure as drawn. The source made the active and inactive calls. No cut-off for these calls is given here.

Assay [1] in a line: Antimitotic activity in rat ASK cells assessed as astrocyte generation at […] by light microscopy. Type of assay: functional. As to conditions: read-out: ED50 (the source's name).
A short description of assay [2]: Cytotoxicity against human KBVIN cells in absence of vinblastine. Type of assay: functional. The note with it: read-out: ED50 (the source's name).
The test system of the next assay is Lu1. Description: Cytotoxicity against human Lu1 cells. It is filed as functional. The note with it: read-out: ED50 (the source's name).
The test system of a further assay is ZR-75-1. The experiment in a line: Cytotoxicity against human ZR-75-1 cells. It is filed as functional, cell-based.
The next assay deals with KB. The experiment in a line: Cytotoxicity against human KB cells. It is filed as functional. The note with it: read-out: ED50 (the source's name).
In the next assay the test system is LNCaP. The experiment in a line: Cytotoxicity against human LNCAP cells. Type of assay: functional. As to conditions: read-out: ED50 (the source's name).
Assay [3] is described as follows: Cytotoxicity against human KBVIN cells in presence of vinblastine. Type of assay: functional. The note with it: read-out: ED50 (the source's name).

On to `CCNC1=CC2=N[C@H]3N(C)CC[C@@]3(C)C2=CC1=O`, for which the EC50 in assay [1] was 1.9 µg/mL (≈ 7.74 µM); in assay [2], 0.8 µg/mL (≈ 3.26 µM); in the assay with Lu1, 1.5 µg/mL (≈ 6.11 µM); in the assay on KB, 0.2 µg/mL (≈ 0.815 µM); in the assay on LNCaP, 0.3 µg/mL (≈ 1.22 µM); in assay [3] it was 0.6 µg/mL. Also, the outcome in the assay with ZR-75-1 was inactive.

On to `CN1CC[C@@]2(C)C3=CC(=O)C(=O)C=C3N(C)[C@@H]12` [RUBRESERINE], for which the EC50 was above 20 µg/mL in assay [1]; 16.8 µg/mL (≈ 72.3 µM) in assay [2]; above 20 µg/mL with Lu1; above 20 µg/mL in the assay with KB; 13.1 µg/mL (≈ 56.4 µM) in the assay on LNCaP; above 20 µg/mL in assay [3]. Also, the outcome in the assay with ZR-75-1 was Active.
